pIC50: −log10 of the molar value.
What was measured:
Escherichia coli = test: Antibacterial activity against Escherichia coli harboring tolC deletion mutant assessed as reduction in microbial growth incubated for 16 hrs by serial dilution method; type: functional
[1] = target: UDP-N-acetylglucosamine 1-carboxyvinyltransferase (Escherichia coli K-12) (UniProt P0A749); test: Inhibition of Escherichia coli K12 His-tagged MurA expressed in Escherichia coli BL21 cells at 50 uM using UNAG as substrate pre incubated for 15 mins followed by substrate addition and measured after 15 mins by microplate reader analysis relative to control; details: time 30.0 min
[2] = target: UDP-N-acetylglucosamine 1-carboxyvinyltransferase (Escherichia coli K-12, UniProt P0A749); test: Inhibition of Escherichia coli K12 His-tagged MurA expressed in Escherichia coli BL21 cells using UNAG as substrate pre incubated for 15 mins followed by substrate addition and measured after 15 mins by microplate reader analysis
Staphylococcus aureus = test: Antibacterial activity against Staphylococcus aureus Newman D2C NCTC 10833 assessed as reduction in microbial growth incubated for 16 hrs by serial dilution method; type: functional
Clostridioides difficile [3] = test: Antibacterial activity against Clostridioides difficile NR-32895 assessed as reduction in microbial growth incubated for 48 hrs by broth microdilution method; type: functional
Clostridioides difficile [4] = test: Antibacterial activity against Clostridioides difficile NR-32889 assessed as reduction in microbial growth incubated for 48 hrs by broth microdilution method; type: functional
Clostridioides difficile [5] = test: Antibacterial activity against Clostridioides difficile NR-32903 assessed as reduction in microbial growth incubated for 48 hrs by broth microdilution method; type: functional
Clostridioides difficile [6] = test: Antibacterial activity against Clostridioides difficile NR-32904 assessed as reduction in microbial growth incubated for 48 hrs by broth microdilution method; type: functional
Clostridioides difficile [7] = test: Antibacterial activity against Clostridioides difficile NR-13427 assessed as reduction in microbial growth incubated for 48 hrs by broth microdilution method; type: functional
Clostridioides difficile [8] = test: Antibacterial activity against Clostridioides difficile NR-13436 assessed as reduction in microbial growth incubated for 48 hrs by broth microdilution method; type: functional
Clostridioides difficile [9] = test: Antibacterial activity against Clostridioides difficile NR-49277 assessed as reduction in microbial growth incubated for 48 hrs by broth microdilution method; type: functional
Clostridioides difficile [10] = test: Antibacterial activity against Clostridioides difficile NR-49278 assessed as reduction in microbial growth incubated for 48 hrs by broth microdilution method; type: functional
Clostridioides difficile [11] = test: Antibacterial activity against Clostridioides difficile NR-49279 assessed as reduction in microbial growth incubated for 48 hrs by broth microdilution method; type: functional
Clostridioides difficile [12] = test: Antibacterial activity against Clostridioides difficile NR-49282 assessed as reduction in microbial growth incubated for 48 hrs by broth microdilution method; type: functional
Clostridioides difficile [13] = test: Antibacterial activity against Clostridioides difficile NR-49283 assessed as reduction in microbial growth incubated for 48 hrs by broth microdilution method; type: functional
Clostridioides difficile [14] = test: Antibacterial activity against Clostridioides difficile NR-49284 assessed as reduction in microbial growth incubated for 48 hrs by broth microdilution method; type: functional
Clostridioides difficile [15] = test: Antibacterial activity against Clostridioides difficile NR-49285 assessed as reduction in microbial growth incubated for 48 hrs by broth microdilution method; type: functional
Clostridioides difficile [16] = test: Antibacterial activity against Clostridioides difficile NR-49286 assessed as reduction in microbial growth incubated for 48 hrs by broth microdilution method; type: functional
Clostridioides difficile [17] = test: Antibacterial activity against Clostridioides difficile NR-49287 assessed as reduction in microbial growth incubated for 48 hrs by broth microdilution method; type: functional
Clostridioides difficile [18] = test: Antibacterial activity against Clostridioides difficile NR-49288 assessed as reduction in microbial growth incubated for 48 hrs by broth microdilution method; type: functional
Clostridioides difficile [19] = test: Antibacterial activity against Clostridioides difficile NR-49291 assessed as reduction in microbial growth incubated for 48 hrs by broth microdilution method; type: functional
Clostridioides difficile [20] = test: Antibacterial activity against Clostridioides difficile NR-49294 assessed as reduction in microbial growth incubated for 48 hrs by broth microdilution method; type: functional
Clostridioides difficile [21] = test: Antibacterial activity against Clostridioides difficile ATCC 43255 assessed as reduction in microbial growth incubated for 48 hrs by broth microdilution method; type: functional
Clostridioides difficile [22] = test: Antibacterial activity against Clostridioides difficile HM-88 assessed as reduction in microbial growth incubated for 48 hrs by broth microdilution method; type: functional
Clostridioides difficile [23] = test: Bactericidal activity against Clostridioides difficile NR-32895 assessed as reduction in microbial growth by broth microdilution method; type: functional
Clostridioides difficile [24] = test: Bactericidal activity against Clostridioides difficile NR-32904 assessed as reduction in microbial growth by broth microdilution method; type: functional
Clostridioides difficile [25] = test: Bactericidal activity against Clostridioides difficile NR-49278 assessed as reduction in microbial growth by broth microdilution method; type: functional
Clostridioides difficile [26] = test: Bactericidal activity against Clostridioides difficile NR-49284 assessed as reduction in microbial growth by broth microdilution method; type: functional
Clostridioides difficile [27] = test: Bactericidal activity against Clostridioides difficile ATCC BAA1870 assessed as reduction in microbial growth by broth microdilution method; type: functional
Clostridioides difficile [28] = test: Bactericidal activity against Clostridioides difficile ATCC 43255 assessed as reduction in microbial growth by broth microdilution method; type: functional
Bacteroides fragilis [29] = test: Antibacterial activity against Bacteroides fragilis HM 20 assessed as reduction in microbial growth incubated for 48 hrs by broth microdilution method; type: functional
Bacteroides fragilis [30] = test: Antibacterial activity against Bacteroides fragilis HM 709 assessed as reduction in microbial growth incubated for 48 hrs by broth microdilution method; type: functional
Bacteroides fragilis [31] = test: Antibacterial activity against Bacteroides fragilis HM 718 assessed as reduction in microbial growth incubated for 48 hrs by broth microdilution method; type: functional
Bacteroides fragilis [32] = test: Antibacterial activity against Bacteroides fragilis HM 719 assessed as reduction in microbial growth incubated for 48 hrs by broth microdilution method; type: functional
Bifidobacterium breve [33] = test: Antibacterial activity against Bifidobacterium breve HM 412 assessed as reduction in microbial growth incubated for 48 hrs by broth microdilution method; type: functional
Bifidobacterium longum = test: Antibacterial activity against Bifidobacterium longum HM 846 assessed as reduction in microbial growth incubated for 48 hrs by broth microdilution method; type: functional
[34] = system: Bifidobacterium angulatum; test: Antibacterial activity against Bifidobacterium angulatum HM 1189 assessed as reduction in microbial growth incubated for 48 hrs by broth microdilution method; type: functional
Bifidobacterium breve [35] = test: Antibacterial activity against Bifidobacterium breve HM1120 assessed as reduction in microbial growth incubated for 48 hrs by broth microdilution method; type: functional
Lactobacillus gasseri [36] = test: Antibacterial activity against Lactobacillus gasseri HM 403 assessed as reduction in microbial growth incubated for 48 hrs by broth microdilution method; type: functional
Lactobacillus gasseri [37] = test: Antibacterial activity against Lactobacillus gasseri HM 407 assessed as reduction in microbial growth incubated for 48 hrs by broth microdilution method; type: functional
Lactobacillus crispatus [38] = test: Antibacterial activity against Lactobacillus crispatus HM 103 assessed as reduction in microbial growth incubated for 48 hrs by broth microdilution method; type: functional
Lactobacillus crispatus [39] = test: Antibacterial activity against Lactobacillus crispatus HM 420 assessed as reduction in microbial growth incubated for 48 hrs by broth microdilution method; type: functional

UDP-N-acetylglucosamine 1-carboxyvinyltransferase (Escherichia coli K-12), sequence (P0A749 whole entry): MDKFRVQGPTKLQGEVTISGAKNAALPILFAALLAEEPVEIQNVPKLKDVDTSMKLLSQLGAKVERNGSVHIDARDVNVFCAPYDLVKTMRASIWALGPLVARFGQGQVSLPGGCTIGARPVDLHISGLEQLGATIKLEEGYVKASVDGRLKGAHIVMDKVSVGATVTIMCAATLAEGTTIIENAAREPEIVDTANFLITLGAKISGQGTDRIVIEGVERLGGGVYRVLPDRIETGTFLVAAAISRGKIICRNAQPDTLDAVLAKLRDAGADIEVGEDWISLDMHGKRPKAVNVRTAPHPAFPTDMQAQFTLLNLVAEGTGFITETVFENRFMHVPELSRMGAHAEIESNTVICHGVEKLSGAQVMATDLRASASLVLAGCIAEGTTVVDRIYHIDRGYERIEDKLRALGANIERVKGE
UDP-N-acetylglucosamine 1-carboxyvinyltransferase, sequence (P0A749 whole entry): as above

## O=C(Nc1ccc2cn[nH]c2c1)C1CN(c2cccc(Cl)c2)N(c2cccc(Cl)c2)C1=O (centres undefined)
Escherichia coli
  MIC: 20 µM
[1]
  inhibition: 65.2%
[2]
  pIC50: 4.45
Staphylococcus aureus
  MIC: > 40 µM

## O=C(Nc1ccsc1)C1CN(c2cccc(Cl)c2)N(c2cccc(Cl)c2)C1=O (centres undefined)
Escherichia coli
  MIC: > 40 µM
[1]
  inhibition: 24.7%
Staphylococcus aureus
  MIC: > 40 µM

## CSc1nnc(NC(=O)C2CN(c3cccc(Cl)c3)N(c3cccc(Cl)c3)C2=O)s1 (centres undefined)
Escherichia coli
  MIC: 38 µM
[1]
  inhibition: 63.4%
[2]
  pIC50: 4.57
Staphylococcus aureus
  MIC: > 40 µM

## CCc1c(Cl)c(O)c(Cl)c(O)c1C(=O)O[C@H]1[C@H](O)[C@H](OC)[C@H](OC/C2=C\C=C\C[C@H](O)/C(C)=C/[C@H](CC)[C@@H](O[C@@H]3OC(C)(C)[C@@H](OC(=O)C(C)C)[C@H](O)[C@@H]3O)/C(C)=C/C(C)=C/C[C@@H]([C@@H](C)O)OC2=O)O[C@@H]1C [FIDAXOMICIN]
Clostridioides difficile [3]
  MIC: 0.03 µg/mL
Clostridioides difficile [4]
  MIC: 0.03 µg/mL
Clostridioides difficile [5]
  MIC: 0.06 µg/mL
Clostridioides difficile [6]
  MIC: 0.06 µg/mL
Clostridioides difficile [7]
  MIC: 0.06 µg/mL
Clostridioides difficile [8]
  MIC: 0.06 µg/mL
Clostridioides difficile [9]
  MIC: 0.06 µg/mL
Clostridioides difficile [10]
  MIC: 0.06 µg/mL
Clostridioides difficile [11]
  MIC: 0.125 µg/mL
Clostridioides difficile [12]
  MIC: 0.06 µg/mL
Clostridioides difficile [13]
  MIC: 0.06 µg/mL
Clostridioides difficile [14]
  MIC: 0.06 µg/mL
Clostridioides difficile [15]
  MIC: 0.06 µg/mL
Clostridioides difficile [16]
  MIC: 0.125 µg/mL
Clostridioides difficile [17]
  MIC: 0.125 µg/mL
Clostridioides difficile [18]
  MIC: 0.03 µg/mL
Clostridioides difficile [19]
  MIC: 0.125 µg/mL
Clostridioides difficile [20]
  MIC: 0.06 µg/mL
Clostridioides difficile [21]
  MIC: 0.03 µg/mL
Clostridioides difficile [22]
  MIC: 0.015 µg/mL
Clostridioides difficile [23]
  MBC: 0.06 µg/mL
Clostridioides difficile [24]
  MBC: 0.06 µg/mL
Clostridioides difficile [25]
  MBC: 0.125 µg/mL
Clostridioides difficile [26]
  MBC: 0.06 µg/mL
Clostridioides difficile [27]
  MBC: 0.25 µg/mL
Clostridioides difficile [28]
  MBC: 0.06 µg/mL
Bacteroides fragilis [29]
  MIC: > 64 µg/mL
Bacteroides fragilis [30]
  MIC: > 64 µg/mL
Bacteroides fragilis [31]
  MIC: > 64 µg/mL
Bacteroides fragilis [32]
  MIC: > 64 µg/mL
Bifidobacterium breve [33]
  MIC: ≤ 0.06 µg/mL
Bifidobacterium longum
  MIC: ≤ 0.06 µg/mL
[34]
  MIC: ≤ 0.06 µg/mL
Bifidobacterium breve [35]
  MIC: ≤ 0.06 µg/mL
Lactobacillus gasseri [36]
  MIC: 1 µg/mL
Lactobacillus gasseri [37]
  MIC: 1 µg/mL
Lactobacillus crispatus [38]
  MIC: 0.5 µg/mL
Lactobacillus crispatus [39]
  MIC: 2 µg/mL

## O=C(Nc1cccnc1)C1CN(c2cccc(Cl)c2)N(c2cccc(Cl)c2)C1=O (centres undefined)
Escherichia coli
  MIC: 38 µM
[1]
  inhibition: 8.7%
Staphylococcus aureus
  MIC: > 40 µM

## N#Cc1ccc(NC(=O)C2CN(c3cccc(Cl)c3)N(c3cccc(Cl)c3)C2=O)cn1 (centres undefined)
Escherichia coli
  MIC: > 40 µM
[1]
  inhibition: 32.2%
Staphylococcus aureus
  MIC: > 40 µM

## Cc1csc(NC(=O)C2CN(c3cccc(Cl)c3)N(c3cccc(Cl)c3)C2=O)n1 (centres undefined)
Escherichia coli
  MIC: 40 µM
[1]
  inhibition: 60.2%
[2]
  pIC50: 4.41
Staphylococcus aureus
  MIC: > 40 µM

— ChEMBL document CHEMBL5537113, “Discovery of 1,2-diaryl-3-oxopyrazolidin-4-carboxamides as a new class of MurA enzyme inhibitors and characterization of their antibacterial activity” (Eur J Med Chem, 2023)
